Test results from US20230338568A1, “NOVEL ISOMERIC COMPOUNDS COMPRISING A RING-OPENED THIOSUCCINIMIDE GROUP, AN OLIGOPEPTIDE FRAGMENT AND A CHIRAL MOIETY” (priority 2020, published 2023).

Tests used:
[1] = test system: HER2 positive cell HCC1954; assay: Cytotoxicity of α-ADCs in HER2 positive cell HCC1954 (CellTiter-Glo); type: cell-based, Human; conditions: HER2 positive HCC1954, 72 h
Experimental: (§1) Cell viability is tested using CellTiter-Glo® Luminescent Kit (Promega, Cat.# G7573) read by a Biotek Cytation3 Imaging reader.
(§2) Study design was shown as in Table 21 and Table 22. […] Cell vitality formula: Viability = (RLU (X) - RLU (Puro))/(RLU (Control) - RLU (Puro)) ^∗ 100%. A logistic model (4-parameter) will be used for data processing, IC50 calculation and curve fitting by Prism 6 software.

[2] = test system: HER2 negative cell MDA-MB-468; assay: Cytotoxicity of α-ADCs in HER2 negative cell MDA-MB-468 (CellTiter-Glo); type: cell-based; conditions: HER2 negative MDA-MB-468, 72 h
Experimental: as §1, §2

COc1cc2cc(c1Cl)N(C)C(=O)C[C@H](OC(=O)[C@H](C)N(C)C(=O)CCS)[C@]1(C)O[C@H]1[C@H](C)[C@@H]1C[C@@](O)(NC(=O)O1)[C@H](OC)/C=C/C=C(\C)C2 [DM1]
IC50 [1]: 4.2 nM
IC50 [2]: 1.5 nM
